According to the SangsterLogP compilation:

Assay: not given

Structure (SMILES)	logP
CCOC(=O)CC	1.21
CCCCCF	2.33
CCCBr	2.1

Assay: method code SF-AS, from DOI: 10.1021/jo01283a049

Structure (SMILES)	logP
CNC(=S)Nc1ccccc1	0.85
OCc1ccc2c(c1)OCO2	1.05

Second part, the compound after the results:

logP	Structure (SMILES)
1.52	CC12CCC(C(=O)C1=O)C2(C)C (stereo not given)
0.85	CN(C(N)=S)c1ccccc1
1.95	CCSCC
2.08	c1ccc2cnccc2c1

Assay: method code SF-CR, from DOI: 10.1021/jo01283a049

logP	Structure (SMILES)
-0.21	CCCC(N)=O
